Experimental findings from ChEMBL document CHEMBL1137268, “2-Aminoquinoline melanin-concentrating hormone (MCH)1R antagonists” (Bioorg Med Chem Lett, 2006) are described below.

A value given as a limit tells only on which side of the number the result lay.

The target of data set [1] is Melanin-concentrating hormone receptor 2 (Homo sapiens) (UniProt Q969V1). As to the kind of experiment: Inhibition of 125I-[Phe13,Tyr19]-MCHbinding to human MCH-R2. The settings on record: concentration not given here.
Sequence of Melanin-concentrating hormone receptor 2 (Homo sapiens) (Q969V1 whole entry): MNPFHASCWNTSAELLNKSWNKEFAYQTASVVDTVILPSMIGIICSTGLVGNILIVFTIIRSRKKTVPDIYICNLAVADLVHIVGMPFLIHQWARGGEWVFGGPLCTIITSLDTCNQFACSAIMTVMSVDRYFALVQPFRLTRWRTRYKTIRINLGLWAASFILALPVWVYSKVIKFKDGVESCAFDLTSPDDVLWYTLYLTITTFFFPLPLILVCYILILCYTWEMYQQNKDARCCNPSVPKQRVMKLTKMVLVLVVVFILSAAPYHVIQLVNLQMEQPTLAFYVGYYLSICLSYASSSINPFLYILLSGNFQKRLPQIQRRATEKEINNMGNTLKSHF
In data set [2] the target is T1, Melanin-concentrating hormone receptor 1 (Homo sapiens, UniProt Q99705). As to the kind of experiment: Displacement of 125I-[Phe13,Tyr19]-MCH from human MCH-R1.
T1 sequence (Q99705 whole entry): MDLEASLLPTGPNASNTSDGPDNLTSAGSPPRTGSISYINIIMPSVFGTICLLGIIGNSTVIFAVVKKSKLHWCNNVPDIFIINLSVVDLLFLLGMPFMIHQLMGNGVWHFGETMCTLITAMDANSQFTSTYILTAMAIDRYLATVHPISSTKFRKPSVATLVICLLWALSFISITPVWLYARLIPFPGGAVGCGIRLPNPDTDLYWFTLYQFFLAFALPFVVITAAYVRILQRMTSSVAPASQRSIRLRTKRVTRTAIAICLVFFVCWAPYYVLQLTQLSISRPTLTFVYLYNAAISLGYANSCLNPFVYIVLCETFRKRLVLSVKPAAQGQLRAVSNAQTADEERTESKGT
Data set [3] has as its target T2, Melanin-concentrating hormone receptor 1 (Rattus norvegicus, UniProt P97639). The data set is described as follows: […] of IP3-coupled mobilization of calcium in HEK293 cells expressing rat MCH-R1. The class given is functional, cell-based.
Data set [4] in a line: Volume of distribution in rats. Type of data set: ADME, organism-based. The following applies: rat, in vivo; read-out: Vdss.
Data set [5] is described as follows: Rat Clp. The class given is ADME, organism-based. The following applies: plasma, read-out: Clp.
In data set [6] the target is T1, Melanin-concentrating hormone receptor 1. The data set is described as follows: Inhibition of 125I-[Phe13,Tyr19]-MCH binding to human MCH-R1 at 5uM.
The nature of data set [7]: Half-life in rats. Type of data set: ADME, organism-based. The settings on record: rat, in vivo.
The target of data set [8] is Melanin-concentrating hormone receptor 1 (Rattus norvegicus) (UniProt P97639). The data set is described as follows: Inhibition of 125I-[Phe13,Tyr19]-MCH binding to rat MCH-R1 at 5uM.
Sequence of Melanin-concentrating hormone receptor 1 (Rattus norvegicus) (P97639 whole entry, the tested form may be a part): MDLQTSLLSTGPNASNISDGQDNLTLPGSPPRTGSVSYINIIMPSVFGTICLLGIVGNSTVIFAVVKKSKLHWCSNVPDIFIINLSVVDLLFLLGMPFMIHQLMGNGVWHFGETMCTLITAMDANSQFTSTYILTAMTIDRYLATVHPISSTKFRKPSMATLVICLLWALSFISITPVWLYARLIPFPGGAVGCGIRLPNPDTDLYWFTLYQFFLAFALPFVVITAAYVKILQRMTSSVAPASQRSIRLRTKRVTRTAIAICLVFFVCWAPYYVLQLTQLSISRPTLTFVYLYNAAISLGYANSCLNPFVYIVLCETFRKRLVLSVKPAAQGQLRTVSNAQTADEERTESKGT
The species named for another data set is Rattus norvegicus. The data set is described as follows: Decreased overnight food intake in continuously infused rats on high-fat diet. Type of data set: functional.
In data set [9] the target is T2, Melanin-concentrating hormone receptor 1. As to the kind of experiment: Displacement of 125I-[Phe13,Tyr19]-MCH from rat MCH-R1.

T2 sequence (P97639 whole entry): as the sequence (P97639 whole entry, the tested form may be a part) above

Regarding `O=C(CCc1ccc(C(F)(F)F)cc1)Nc1ccc2nc(N3CCC3)ccc2c1`, the inhibition in data set [1] is less than 50%. Also, in [2], the half-inhibitory concentration (IC50) stood at 4 nM. Further, the 50% effective concentration (EC50) in data set [3] stood at 56 nM.

Take `NC1CCN(c2ccc3cc(NC(=O)CCc4ccc(C(F)(F)F)cc4)ccc3n2)C1` (stereo unspecified): the half-inhibitory concentration (IC50) in data set [2] was determined as 12 nM. Also, the EC50 in [3] came to 200 nM.

`Nc1ccc2cc(NC(=O)CCc3ccc(C(F)(F)F)cc3)ccc2n1`: the inhibition in data set [1] is less than 50%. Moreover, in [2], the concentration for half-maximal inhibition (IC50) stood at 240 nM. The 50% effective concentration (EC50) in data set [3] worked out at 720 nM.

In the case of `O=C(Nc1ccc2nc([N+]34CCC(CC3)CC4)ccc2c1)c1ccc(C(F)(F)F)nc1`, in [4], the Vd stood at 3.92 L/kg. The clearance in [5] is 57 mL/min/kg. Further, the inhibition in [6] was 30%; in data set [8], 20%. In data set [7], the half-life was 66 min. The EC50 in data set [3] was greater than 10000 nM.

Take `CCN(CC)c1ccc2cc(NC(=O)CCc3ccc(C(F)(F)F)cc3)ccc2n1`: in data set [1], the inhibition was less than 50%. In [2], this compound registered an IC50 of 88 nM. Besides, the EC50 in [3] stood at 830 nM.

The compound `CCCN(CCC)c1ccc2cc(NC(=O)CCc3ccc(C(F)(F)F)cc3)ccc2n1` came in with an inhibition in data set [1] of less than 50%. In data set [2], this compound gave an IC50 of 490 nM.

In [1], `CCCN(C)c1ccc2cc(NC(=O)CCc3ccc(C(F)(F)F)cc3)ccc2n1` registered an inhibition of less than 50%. The compound further returned an IC50 in [2] of 10 nM. Further, the EC50 in data set [3] came to 140 nM.

For `CC1CCCN1c1ccc2cc(NC(=O)CCc3ccc(C(F)(F)F)cc3)ccc2n1` (stereo unspecified), the IC50 in [2] is 5 nM. Moreover, the EC50 in [3] amounted to 270 nM.

Compound `CNC(=O)NC1CCN(c2ccc3cc(NC(=O)CCc4ccc(C(F)(F)F)cc4)ccc3n2)C1` (stereo unspecified) had an IC50 in data set [2] of 6 nM. Also, the EC50 in data set [3] was determined as 30 nM.

On to `O=C(CCc1ccc(C(F)(F)F)cc1)Nc1ccc2nc(N3CCC(c4ccccc4)C3)ccc2c1` (stereo unspecified), for which the IC50 in data set [2] was found to be 25 nM. In [3], the concentration for a half-maximal effect (EC50) amounted to 1770 nM.

For the compound `O=C(CCc1ccc(C(F)(F)F)cc1)Nc1ccc2nc(N3CC4CCC3CC4)ccc2c1`, the inhibition in [1] is less than 50%. Besides, in data set [2], the IC50 worked out at 3 nM. The EC50 in data set [3] is 190 nM.

The compound `COC(=O)C1CCCN1c1ccc2cc(NC(=O)CCc3ccc(C(F)(F)F)cc3)ccc2n1` (stereo unspecified) yielded an IC50 in data set [2] of 800 nM. In addition, the EC50 in [3] is 580 nM.

Compound `CC1CCN(c2ccc3cc(NC(=O)CCc4ccc(C(F)(F)F)cc4)ccc3n2)C1` (stereo unspecified) had an IC50 in [2] of 2 nM. Also, the EC50 in data set [3] is 400 nM.

Compound `O=C(CCc1ccc(C(F)(F)F)cc1)Nc1ccc2nc(N3CC4CCC3C4)ccc2c1` (stereo unspecified) came in with an IC50 in data set [2] of 1 nM. Also, the EC50 in [3] was 150 nM.

The compound `CN(c1ccccc1)c1ccc2cc(NC(=O)CCc3ccc(C(F)(F)F)cc3)ccc2n1` returned an inhibition in [1] of less than 50%. In addition, the IC50 in data set [2] was 3700 nM.

For the compound `O=C(CCc1ccc(C(F)(F)F)cc1)Nc1ccc2nc(N3CC4CC3CO4)ccc2c1` (stereo unspecified), in data set [2], the IC50 was found to be 13 nM. Moreover, the EC50 in data set [3] amounted to 70 nM.

`O=C(CCc1ccc(C(F)(F)F)cc1)Nc1ccc2nc(N3CCCCCC3)ccc2c1` displayed an inhibition in data set [1] of less than 50%. Moreover, the IC50 in data set [2] came out at 36 nM. In data set [3], the EC50 was 1800 nM.

The compound `CN(c1ccc2cc(NC(=O)CCc3ccc(C(F)(F)F)cc3)ccc2n1)C1CCCCC1` yielded an inhibition in [1] of less than 50%. The compound also had an IC50 in data set [2] of 18 nM. In data set [3], the EC50 came to 1200 nM.

The compound `O=C(CCc1ccc(C(F)(F)F)cc1)Nc1ccc2nc(N3CCC4(CCNC4)C3)ccc2c1` (stereo unspecified) returned an IC50 in [2] of 0.5 nM. For the same compound, the EC50 in [3] worked out at 140 nM.

On to `O=C(CCc1ccc(C(F)(F)F)cc1)Nc1ccc2nc(N3CCC(NC(=O)c4ccccc4)C3)ccc2c1` (stereo unspecified), for which the IC50 in data set [2] was 10 nM. Further, the EC50 in data set [3] came out at 110 nM.

Compound `O=C(CCc1ccc(C(F)(F)F)cc1)Nc1ccc2nc(N3CCCCC3)ccc2c1` gave an inhibition in data set [1] of less than 50%. In [2], this compound registered an IC50 of 12 nM. In data set [3], the EC50 was found to be 110 nM.

In data set [1], `CNc1ccc2cc(NC(=O)CCc3ccc(C(F)(F)F)cc3)ccc2n1` returned an inhibition of less than 50%. In addition, the IC50 in [2] worked out at 20 nM. Also, the 50% effective concentration (EC50) in data set [3] was 330 nM.

For `CC(=O)NC1CCN(c2ccc3cc(NC(=O)CCc4ccc(C(F)(F)F)cc4)ccc3n2)C1` (stereo unspecified), the IC50 in data set [2] was determined as 5 nM. Further, in data set [3], the EC50 stood at 440 nM.

`CC(C)N(C)c1ccc2cc(NC(=O)CCc3ccc(C(F)(F)F)cc3)ccc2n1`: the inhibition in data set [1] is less than 50%. In [2], the concentration for half-maximal inhibition (IC50) was 2 nM. In data set [3], the EC50 was 140 nM.

`O=C(CCc1ccc(C(F)(F)F)cc1)Nc1ccc2nc(N3CCCC3)ccc2c1` came in with an inhibition in data set [1] of less than 50%. The compound further showed an IC50 in data set [2] of 3 nM. Also, the EC50 in [3] and in data set [3] (hek293) was 320 nM each time.

`CCCc1cc(N(C)C)c2cc(NC(=O)CCc3ccc(C(F)(F)F)cc3)ccc2n1` yielded an IC50 in data set [2] of 12 nM.

In the case of `CN(C)c1ccc2cc(NC(=O)CCc3ccc(C(F)(F)F)cc3)ccc2n1`, the inhibition in data set [1] was less than 50%. Moreover, the IC50 in data set [2] was found to be 13 nM. The EC50 in data set [3] worked out at 110 nM.

In data set [2], `O=C(CCc1ccc(C(F)(F)F)cc1)Nc1ccc2nc(N3CC4CC3CN4)ccc2c1` (stereo unspecified) had a concentration for half-maximal inhibition (IC50) of 210 nM. In data set [3], the EC50 was determined as 490 nM.

Turning to `CS(=O)(=O)NC1CCN(c2ccc3cc(NC(=O)CCc4ccc(C(F)(F)F)cc4)ccc3n2)C1` (stereo unspecified), in [2], the IC50 turned out to be 3 nM. The EC50 in data set [3] amounted to 50 nM.

Regarding `CN(c1ccc2cc(NC(=O)CCc3ccc(C(F)(F)F)cc3)ccc2n1)C1CCCC1`, the inhibition in data set [1] is less than 50%. Moreover, the IC50 in [2] turned out to be 2 nM. Moreover, the EC50 in data set [3] came out at 350 nM.

Compound `O=C(CCCCCCCCCCCCc1ccc(C(F)(F)F)cc1)Nc1ccc2nc([N+]34CCC(CC3)CC4)ccc2c1` came in with a Reduced food intake in the data set filed under Rattus norvegicus of 26%. Further, the Vd in data set [4] is 1 L/kg. Also, the clearance in data set [5] was found to be 36 mL/min/kg. Further, the IC50 in data set [9] was found to be 13 nM; in data set [2] it was 5 nM. Also, the half-life in [7] was 36 min. For the same compound, the EC50 in data set [3] turned out to be 25 nM.

Consider `CC(C)C(=O)NC1CCN(c2ccc3cc(NC(=O)CCc4ccc(C(F)(F)F)cc4)ccc3n2)C1` (stereo unspecified), for which the half-maximal inhibitory concentration (IC50) in data set [2] is 1 nM. In [3], the EC50 is 90 nM.
